Earlier results on one molecule are cited in US20220251564A1, “p16INK4a INHIBITOR FOR PREVENTING OR TREATING HUNTINGTON'S DISEASE” (SORBONNE UNIVERSITE, priority 2019, published 2022).

This series has as its system neurons. The following applies: in vitro.

For `COc1cc([C@@H]2c3cc4c(cc3[C@@H](O[C@@H]3O[C@@H]5CO[C@@H](C)O[C@H]5[C@H](O)[C@H]3O)[C@H]3COC(=O)[C@H]23)OCO4)cc(OC)c1O` [Etoposide], the activation of neurons result was “activate neurons in vitro”.
